Experimental data from ChEMBL document CHEMBL3044831, “Docking study, in vitro anticancer screening and radiosensitizing evaluation of some new fluorine-containing quinoline and pyrimidoquinoline derivatives bearing a sulfonamide moiety” (Med Chem Res, 2011).

Legend:
MCF7 [1] = assay: Cytotoxicity against Homo sapiens (human) MCF-7 cells assessed as surviving fraction at 50 uM after 48 hr by SRB assay relative to control; format: functional
MCF7 [2] = assay: Cytotoxicity against Homo sapiens (human) MCF-7 cells assessed as surviving fraction at 10 uM after 48 hr by SRB assay relative to control; format: functional
MCF7 [3] = assay: Cytotoxicity against Homo sapiens (human) MCF7 cells assessed as surviving fraction at 25 uM after 48 hr by SRB assay relative to control; format: functional
MCF7 [4] = assay: Cytotoxicity against Homo sapiens (human) MCF-7 cells after 48 hr by SRB assay relative to control; format: functional, cell-based; details: MCF7, 48 h
MCF7 [5] = assay: Cytotoxicity against Homo sapiens (human) MCF-7 cells assessed as surviving fraction at 100 uM after 48 hr by SRB assay relative to control; format: functional
MCF7 [6] = assay: Radiosensitizing activity against Homo sapiens (human) gamma-irradiated MCF-7 cells assessed as surviving fraction at 10 uM after 48 hr by SRB assay (reference value: 0.927 +/- 0.02); format: functional
MCF7 [7] = assay: Radiosensitizing activity against Homo sapiens (human) gamma-irradiated MCF-7 cells assessed as surviving fraction at 25 uM after 48 hr by SRB assay (reference value: 0.927 +/- 0.02); format: functional
MCF7 [8] = assay: Potentiation of gamma-irradiation-induced cytotoxicity against Homo sapiens (human) MCF-7 cells after 48 hr by SRB assay; format: functional, cell-based; details: MCF7, light or radiation study
MCF7 [9] = assay: Radiosensitizing activity against Homo sapiens (human) gamma-irradiated MCF-7 cells assessed as surviving fraction at 50 uM after 48 hr by SRB assay (reference value: 0.927 +/- 0.02); format: functional
MCF7 [10] = assay: Radiosensitizing activity against Homo sapiens (human) gamma-irradiated MCF-7 cells assessed as surviving fraction at 100 uM after 48 hr by SRB assay (reference value: 0.927 +/- 0.02); format: functional

SMILES	fold change (FC) (MCF7 [1])	fold change (FC) (MCF7 [2])	fold change (FC) (MCF7 [3])	IC50 (MCF7 [4]) [µM]	fold change (surviving fraction) (MCF7 [5])	fold change (FC) (MCF7 [6])	fold change (FC) (MCF7 [7])	IC50 (MCF7 [8]) [µM]	fold change (FC) (MCF7 [9])	fold change (FC) (MCF7 [10])
CC1(C)CC(=O)C2=C(C1)N(c1ccc(S(N)(=O)=O)cc1)c1ncnc(N=C=S)c1C2c1ccc(F)cc1 (stereo not given)	0.487	0.922	0.755	85.6	0.534	–	–	–	–	–
CC1(C)CC(=O)C2=C(C1)N(c1ccc(S(N)(=O)=O)cc1)C(N)=C(C#N)C2c1ccc(F)cc1 (stereo not given)	0.427	0.855	0.562	71.8	0.482	–	–	–	–	–
CC1(C)CC(=O)C2=C(C1)N(c1ccc(S(N)(=O)=O)cc1)c1nc[nH]c(=O)c1C2c1ccc(F)cc1 (stereo not given)	0.499	0.934	0.757	77.1	0.447	–	–	–	–	–
CC(=O)NC1=C(C#N)C(c2ccc(F)cc2)C2=C(CC(C)(C)CC2=O)N1c1ccc(S(N)(=O)=O)cc1 (stereo not given)	0.598	0.882	0.763	85.9	0.483	–	–	–	–	–
CC(=O)N(C(C)=O)C1=C(C#N)C(c2ccc(F)cc2)C2=C(CC(C)(C)CC2=O)N1c1ccc(S(N)(=O)=O)cc1 (stereo not given)	0.455	0.987	0.733	79.7	0.498	–	–	–	–	–
Cc1nc2c(c(=O)[nH]1)C(c1ccc(F)cc1)C1=C(CC(C)(C)CC1=O)N2c1ccc(S(N)(=O)=O)cc1 (stereo not given)	0.494	0.768	0.654	69.8	0.425	–	–	–	–	–
CC1(C)CC(=O)C2=C(C1)N(c1ccc(S(N)(=O)=O)cc1)c1ncnc(N)c1C2c1ccc(F)cc1 (stereo not given)	0.311	0.795	0.448	52.6	0.381	0.51	0.347	28.5	0.163	0.222
CCO/C=N/C1=C(C#N)C(c2ccc(F)cc2)C2=C(CC(C)(C)CC2=O)N1c1ccc(S(N)(=O)=O)cc1 (stereo not given)	0.477	0.904	0.62	67.3	0.401	0.677	0.428	36	0.199	0.156
CC1(C)CC(=O)C2=C(C1)N(c1ccc(S(N)(=O)=O)cc1)C(NC(=O)CCl)=C(C#N)C2c1ccc(F)cc1 (stereo not given)	0.45	0.885	0.7	70.8	0.43	–	–	–	–	–
CC1(C)CC(=O)C2=C(C1)N(c1ccc(S(N)(=O)=O)cc1)c1nc(CCl)[nH]c(=O)c1C2c1ccc(F)cc1 (stereo not given)	0.784	0.984	0.77	> 100	0.768	–	–	–	–	–
CC1(C)CC(=O)C2=C(C1)N(c1ccc(S(N)(=O)=O)cc1)c1nc(CC#N)[nH]c(=O)c1C2c1ccc(F)cc1 (stereo not given)	0.662	0.976	0.864	> 100	0.6	–	–	–	–	–
CCNC(=S)NC1=C(C#N)C(c2ccc(F)cc2)C2=C(CC(C)(C)CC2=O)N1c1ccc(S(N)(=O)=O)cc1 (stereo not given)	0.642	0.924	0.852	> 100	0.609	–	–	–	–	–
CC1(C)CC(=O)C2=C(C1)N(c1ccc(S(N)(=O)=O)cc1)C(N1C(=O)CCC1=O)=C(C#N)C2c1ccc(F)cc1 (stereo not given)	0.678	0.933	0.885	94.1	0.488	–	–	–	–	–
CC1(C)CC(=O)C2=C(C1)N(c1ccc(S(N)(=O)=O)cc1)C(N)=C(C(N)=O)C2c1ccc(F)cc1 (stereo not given)	0.409	0.906	0.711	75.2	0.493	–	–	–	–	–
CC1(C)CC(=O)C2=C(C1)N(c1ccc(S(N)(=O)=O)cc1)C(N)=C(C1=NCCN1)C2c1ccc(F)cc1 (stereo not given)	0.423	0.873	0.679	87	0.581	–	–	–	–	–
CC(=O)CC(=O)NC1=C(C#N)C(c2ccc(F)cc2)C2=C(CC(C)(C)CC2=O)N1c1ccc(S(N)(=O)=O)cc1 (stereo not given)	0.76	0.919	0.905	> 100	0.663	–	–	–	–	–
CC1(C)CC(=O)C2=C(C1)N(c1ccc(S(N)(=O)=O)cc1)c1nc[nH]c(=S)c1C2c1ccc(F)cc1 (stereo not given)	0.686	0.99	0.901	> 100	0.608	–	–	–	–	–
CC1(C)CC(=O)C2=C(C1)N(c1ccc(S(N)(=O)=O)cc1)c1ncnc(Cl)c1C2c1ccc(F)cc1 (stereo not given)	0.635	0.909	0.785	85.6	0.457	–	–	–	–	–
CCOC(=O)Cn1cnc2c(c1=O)C(c1ccc(F)cc1)C1=C(CC(C)(C)CC1=O)N2c1ccc(S(N)(=O)=O)cc1 (stereo not given)	0.686	0.969	0.898	> 100	0.572	–	–	–	–	–
CC1(C)CC(=O)C2=C(C1)N(c1ccc(S(N)(=O)=O)cc1)c1ncnc(NN)c1C2c1ccc(F)cc1 (stereo not given)	0.478	0.959	0.652	81.2	0.518	–	–	–	–	–
